Reference: the METLIN SMRT retention time set (Domingo-Almenara et al. 2019)

test: gradient 5% acetonitrile 3 min, to 50% in 2 min, to 85% in 15 min, held 3 min, 100 µL/min; conditions: column: Zorbax Extend-C18 2.1 x 50 mm; eluents: water / acetonitrile, 0.1% formic acid
Summary of the method: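 Over 3 months, pure standards in mixtures of ~100 molecules were run by HPLC coupled to a quadrupole time-of-flight mass spectrometer in positive and negative ionization mode. The column was a Zorbax Extend-C18 (2.1 × 50 mm, 1.8 μm) at 100 μL/min, eluted with water and acetonitrile each holding 0.1% formic acid, with 40 μL dead and 900 μL dwell volumes. Retention time was determined from adduct peaks chosen by software and checked manually.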

Q: Which RP-LC retention time does the source give for O=C(NCCN1CCCCCC1)C1CCN(c2cnn(Cc3ccccc3)c(=O)c2)CC1 here?
A: Its RP-LC retention time is 614 s.

Q: Which RP-LC retention time does the source give for CCN(C(=O)Cn1ccc2c(=O)n(C)c(=O)n(C)c21)c1cccc(Cl)c1 here?
A: The RP-LC retention time was 747 s.

Q: With CSc1ccc(CNC(=O)C2CCCN(c3nccc(C)n3)C2)cc1 (configuration not stated) as the compound, how does the RP-LC retention time read?
A: The RP-LC retention time was 763 s.

Q: With COc1ccc(-c2nc3cccnc3n2C2CCN(C(=O)c3ccc4c(c3)OCO4)C2)cc1 (configuration not stated) as the compound, how does the RP-LC retention time read?
A: The RP-LC retention time was 716 s.

Q: For COc1ccc(NC(=O)NC2CCN(c3ccc(F)c(C)c3)C2=O)cc1 (configuration not stated), which RP-LC retention time is on record?
A: The RP-LC retention time was 798 s.

Q: With CCOC(=O)c1ccccc1NC(=O)CCCn1nc(-c2ccc(F)cc2)ccc1=O as the compound, how does the RP-LC retention time read?
A: Its RP-LC retention time is 922 s.

Q: With O=C(Cn1nc2c(Oc3ccccc3)nccn2c1=O)Nc1ccc(Br)cc1F as the compound, how does the RP-LC retention time read?
A: Its RP-LC retention time is 898 s.

Q: With O=c1n(Cc2c(F)cccc2Cl)nc2c(S(=O)(=O)N3CCCC3)cccn12 as the compound, how does the RP-LC retention time read?
A: The RP-LC retention time was 840 s.

Q: Which RP-LC retention time does the source give for Cc1ccc(CC(=O)N2CCC3(C2)C(=O)N(C)c2ccccc23)cc1 (configuration not stated) here?
A: Its RP-LC retention time is 850 s.

Q: For CCCN1C(=O)COc2ccc(-c3noc(Cc4ccc(OC)c(OC)c4)n3)cc21, which RP-LC retention time is on record?
A: The RP-LC retention time was 993 s.

Q: For CN(C)CCNC(=O)C1CCN(c2nc3ccc(-c4ccc(F)cc4)nc3s2)CC1, which RP-LC retention time is on record?
A: Its RP-LC retention time is 686 s.

Q: Which RP-LC retention time does the source give for COc1cccc2c1OC1(C)CC2C(S(=O)(=O)c2ccc(Cl)cc2)C(=O)N1C (configuration not stated) here?
A: The RP-LC retention time was 938 s.

Q: With O=C(NCCc1csc(-c2ccccc2)n1)[C@H]1CCCN1S(=O)(=O)c1cccc2nsnc12 as the compound, how does the RP-LC retention time read?
A: Its RP-LC retention time is 888 s.

Q: With Cc1ncsc1CN1CCCC(c2nc(C(C)C)no2)CCNC(=O)CC1 (configuration not stated) as the compound, how does the RP-LC retention time read?
A: The RP-LC retention time was 598 s.

Q: For O=C(Nc1cccc(Cl)c1)c1cn(-c2cc(N3CCCC3)ncn2)cn1, which RP-LC retention time is on record?
A: The RP-LC retention time was 906 s.

Q: For Cc1oc(-c2[nH]ncc2C(=O)N(C)C)cc1S(=O)(=O)NC1CC1, which RP-LC retention time is on record?
A: Its RP-LC retention time is 614 s.

Q: Which RP-LC retention time does the source give for O=C(CSc1ccc(S(=O)(=O)c2ccccc2)nn1)Nc1ccc2c(c1)OCO2 here?
A: Its RP-LC retention time is 822 s.

Q: With Cc1nn(-c2nc(-c3ccc(Cl)cc3)cs2)c(C)c1CC(=O)N1CCCCCC1 as the compound, how does the RP-LC retention time read?
A: The RP-LC retention time was 793 s.

Q: With CC(=O)N1c2ccc(S(=O)(=O)N3CCCCCC3)cc2CC1C(=O)NCCc1ccccc1 (configuration not stated) as the compound, how does the RP-LC retention time read?
A: Its RP-LC retention time is 918 s.

Q: For CCOC(=O)N1CCN(Cc2nc(-c3ccc(N4CCC(C)CC4)nc3)no2)CC1, which RP-LC retention time is on record?
A: Its RP-LC retention time is 847 s.

Q: With Cn1cc(C(=O)N2CC(Oc3ccc(-c4nc(-c5ccccc5)no4)cc3)C2)cn1 as the compound, how does the RP-LC retention time read?
A: The RP-LC retention time was 941 s.

Q: Which RP-LC retention time does the source give for COc1cc(-c2nc3ncccn3c2Nc2ccc(C)c(C)c2)ccc1O here?
A: The RP-LC retention time was 683 s.

Q: For CC(C)CCN1CCC(N2CCN(C(=O)C3CCCC3)CC2)C1=O (configuration not stated), which RP-LC retention time is on record?
A: Its RP-LC retention time is 585 s.

Q: With COc1ccc(OC)c(NC(=O)COc2nc(C)nc3ccccc23)c1 as the compound, how does the RP-LC retention time read?
A: The RP-LC retention time was 725 s.

Q: For Cn1cc(CC(=O)NCc2ccc(F)cc2)c2cccnc21, which RP-LC retention time is on record?
A: The RP-LC retention time was 669 s.

Q: Which RP-LC retention time does the source give for CN(CCc1noc(COc2ccccc2F)n1)C(=O)c1cccs1 here?
A: Its RP-LC retention time is 835 s.

Q: Which RP-LC retention time does the source give for Cc1ccc(F)cc1NS(=O)(=O)c1cc2n(c1)CCCN(C)C2=O here?
A: The RP-LC retention time was 716 s.

Q: Which RP-LC retention time does the source give for CCCC(NC(=O)Cc1ccc(C)cc1)C(=O)Nc1nc2ccccc2[nH]1 (configuration not stated) here?
A: Its RP-LC retention time is 722 s.

Q: For CCn1cc(-c2nc(C)c(C(=O)Nc3cccc(C(=O)OC)c3)s2)c2cccnc21, which RP-LC retention time is on record?
A: Its RP-LC retention time is 993 s.

Q: Which RP-LC retention time does the source give for CCN(CCN(C)C)c1ccc(C(=O)O)cc1NS(=O)(=O)c1ccccc1 here?
A: The RP-LC retention time was 610 s.

Q: With CN1C(=O)CS(=O)(=O)C12CCN(C(=O)c1ccc3c(c1)OCO3)CC2 as the compound, how does the RP-LC retention time read?
A: Its RP-LC retention time is 628 s.

Q: Which RP-LC retention time does the source give for O=C(CCC[C@@H]1[C@H]2CCCN3CCC[C@@H](CN1S(=O)(=O)c1cccs1)[C@@H]23)N1CCOCC1 here?
A: Its RP-LC retention time is 588 s.

Q: For COc1cccc(CNC(=O)c2ccc3ncnc(N4CCCC4)c3c2)c1, which RP-LC retention time is on record?
A: Its RP-LC retention time is 621 s.

Q: For CCn1cc(S(=O)(=O)N2CCC(c3noc(-c4cccnc4)n3)C2)cn1 (configuration not stated), which RP-LC retention time is on record?
A: Its RP-LC retention time is 710 s.

Q: For COc1ccc(C(O)Cn2ccn3nc(-c4cccs4)cc3c2=O)cc1 (configuration not stated), which RP-LC retention time is on record?
A: The RP-LC retention time was 848 s.

Q: For Cn1cc2nc(SCC(=O)Nc3ccc(Br)cc3)n(CC3CC3)c(=O)c2n1, which RP-LC retention time is on record?
A: Its RP-LC retention time is 905 s.

Q: With Fc1ccc(Cl)cc1-c1nc(-c2ccc(-n3cccn3)nc2)no1 as the compound, how does the RP-LC retention time read?
A: Its RP-LC retention time is 1290 s.

Q: For Cc1sc(-c2nnc(C3CCC3)o2)cc1NC(=O)Cc1ccc(F)cc1, which RP-LC retention time is on record?
A: The RP-LC retention time was 1020 s.

Q: With Cc1cc(C)n(CCNC(=O)NCc2cccs2)n1 as the compound, how does the RP-LC retention time read?
A: The RP-LC retention time was 593 s.

Q: With Cc1ccc(N2CCC(NC(=O)c3ccccc3)C2=O)cc1C (configuration not stated) as the compound, how does the RP-LC retention time read?
A: The RP-LC retention time was 862 s.

Q: Which RP-LC retention time does the source give for CCC1CN2C=Nc3oc(C)c(C(=O)Nc4ccc(F)cc4Br)c3C2=N1 (configuration not stated) here?
A: The RP-LC retention time was 682 s.

Q: Which RP-LC retention time does the source give for CC(/C=C1\SC(=S)N(CC(=O)O)C1=O)=C\c1ccccc1 here?
A: The RP-LC retention time was 1150 s.

Q: Which RP-LC retention time does the source give for COc1ccc(C(=O)N2CCC(c3cc(N)on3)CC2)cc1F here?
A: Its RP-LC retention time is 659 s.

Q: Which RP-LC retention time does the source give for CC(C)c1nccn1C1CN(C(=O)C(C)c2ccccc2)C1 (configuration not stated) here?
A: The RP-LC retention time was 612 s.

Q: With COC(=O)N1CCN(C(=O)Cc2ccc(Cl)c(Cl)c2)C(CN2CCCC2)C1 (configuration not stated) as the compound, how does the RP-LC retention time read?
A: The RP-LC retention time was 688 s.

Q: For O=C(Nc1ccc2c(c1)OCO2)NC1CCCC(OC(=O)Nc2ccc(F)cc2)C1 (configuration not stated), which RP-LC retention time is on record?
A: Its RP-LC retention time is 825 s.

Q: For CCOC(=O)c1c(C)[nH]c(C(=O)N2CCC(CC(=O)NC3CCCCC3)CC2)c1C, which RP-LC retention time is on record?
A: The RP-LC retention time was 778 s.

Q: Which RP-LC retention time does the source give for Cc1cccc(-c2noc(Cn3c(=O)n(Cc4cccc(Cl)c4)c(=O)c4sccc43)n2)c1 here?
A: The RP-LC retention time was 1230 s.

Q: With Cc1cc(C(=O)NCCN2CCN(c3cccc(C)c3C)CC2)n(-c2ccccc2)n1 as the compound, how does the RP-LC retention time read?
A: Its RP-LC retention time is 705 s.

Q: For Cc1noc(-c2ccc(OC3CN(S(=O)(=O)c4c(C)noc4C)C3)cc2)n1, which RP-LC retention time is on record?
A: Its RP-LC retention time is 943 s.

Q: With CCOC(=O)Cc1csc(NS(=O)(=O)c2cn(C)nc2C)n1 as the compound, how does the RP-LC retention time read?
A: The RP-LC retention time was 592 s.

Q: With COc1ccc2c(CCNC(=O)c3ccc(C(C)(C)C)cc3)c[nH]c2c1 as the compound, how does the RP-LC retention time read?
A: Its RP-LC retention time is 982 s.

Q: With CCCCn1nc2ccc(S(=O)(=O)N3CCCCC3)cn2c1=O as the compound, how does the RP-LC retention time read?
A: Its RP-LC retention time is 887 s.

Q: For CC1=C(c2cccc(Cl)c2)S(=O)(=O)N=C1N1CCCN(C(=O)c2ccoc2)CC1, which RP-LC retention time is on record?
A: The RP-LC retention time was 806 s.

Q: Which RP-LC retention time does the source give for OC1(Cc2ccccc2)CCNCC1 here?
A: Its RP-LC retention time is 612 s.

Q: Which RP-LC retention time does the source give for CC(C)Cc1ccc(S(=O)(=O)N2CCc3c(c(-c4nnc(-c5ccccc5)o4)nn3C)C2)cc1 here?
A: The RP-LC retention time was 1150 s.

Q: For COc1ccc(CN2CCC(NC(=O)CCc3c(C)noc3C)C2)cn1 (configuration not stated), which RP-LC retention time is on record?
A: Its RP-LC retention time is 571 s.

Q: Which RP-LC retention time does the source give for O=C(Cc1cccs1)Nc1cccc2ccc(-n3ccnc3)nc12 here?
A: The RP-LC retention time was 610 s.

Q: With CCNC(=O)c1ncn2c1C(=O)N(C1CC1)C(C)(C(=O)NCc1ccccc1)C2 (configuration not stated) as the compound, how does the RP-LC retention time read?
A: Its RP-LC retention time is 656 s.

Q: Which RP-LC retention time does the source give for COc1cc(OC)c(NC(=O)N2CC(c3nc(C(C)C)nn3C)C2)cc1Cl here?
A: Its RP-LC retention time is 695 s.

Q: For Cn1c(C2CCN(S(=O)(=O)c3ccccc3Cl)CC2)cc(=O)n2nccc12, which RP-LC retention time is on record?
A: The RP-LC retention time was 708 s.

Q: With Cc1ccc(-c2nnc(-c3ccccc3Cl)o2)cc1S(=O)(=O)N1CCCC1 as the compound, how does the RP-LC retention time read?
A: The RP-LC retention time was 1090 s.

Q: Which RP-LC retention time does the source give for CCn1ccc(C(=O)NC(C)C)n1 here?
A: The RP-LC retention time was 642 s.

Q: Which RP-LC retention time does the source give for CSc1ccc(CNC(=O)c2cc3c(=O)n(Cc4ccccc4)ccc3nc2C)cc1 here?
A: Its RP-LC retention time is 870 s.

Q: For CCOc1ccc(-c2nc(C3CC(=O)N(c4ccc(C)cc4)C3)no2)cc1OCC (configuration not stated), which RP-LC retention time is on record?
A: Its RP-LC retention time is 1090 s.

Q: With Cc1ccnc(Nc2nc(-c3ccccc3)cs2)c1 as the compound, how does the RP-LC retention time read?
A: The RP-LC retention time was 790 s.

Q: Which RP-LC retention time does the source give for Cc1nc(-c2ccc(N3CCN(C(=O)c4cc(F)ccc4F)CC3)nc2)sc1C here?
A: The RP-LC retention time was 890 s.
